# According to US20200182861A1, “METHOD FOR DIFFERENTIATION OF PLURIPOTENT STEM CELLS INTO VASCULAR BED CELLS” (Hoffmann-La Roche Inc., priority 2011, published 2020):
# B1: Wnt3a: Wnt3a added to the priming medium (protein, UniProt P56704 19-352, looked up)
# Protein Wnt-3a: SYPIWWSLAVGPQYSSLGSQPILCASIPGLVPKQLRFCRNYVEIMPSVAEGIKIGIQECQHQFRGRRWNCTTVHDSLAIFGPVLDKATRESAFVHAIASAGVAFAVTRSCAEGTAAICGCSSRHQGSPGKGWKWGGCSEDIEFGGMVSREFADARENRPDARSAMNRHNNEAGRQAIASHMHLKCKCHGLSGSCEVKTCWWSQPDFRAIGDFLKDKYDSASEMVVEKHRESRGWVETLRPRYTYFKVPTERDLVYYEASPNFCEPNPETGSFGTRDRTCNVSSHGIDGCDLLCCGRGHNARAERRREKCRCVFHWCCYVSCQECTRVYDVHTCK
# What was measured:
# [1] = test system: β-catenin-mediated TCF/LEF transcription; assay: TCF/LEF reporter assay in human PA-1 reporter cells; type: cell-based; conditions: for dose-response activation curve: dose-response assay
# Description: FIG. 19: Compound selection. TCF/LEF reporter assay in human PA-1 reporter cells (DeAlmeida et al., 2007). After the treatment of reporter cells with GSk3 inhibitors at indicated concentrations β-catenin-mediated TCF/LEF transcriptional activity was measured as luciferase activity. The Compound Cp21R7 induced highest luciferase activity at a concentration of 3 μM.
# (§1) The potential of the most widely used commercial GSK30 inhibitors and CP21R7 to activate β-catenin-mediated TCF/LEF transcription in human PA-1 reporter cells (DeAlmeida et al., 2007) was evaluated. […] Unmodified PA-1 cells are used to measure cellular viability via ATP levels and GLI-luciferase responsive reporter PA-1 cells as counter screen to monitor changes in general transcriptional activity. […] On the outcome of the β-Catenin reporter assay, three GSk3β inhibitors namely BIO, CHIR and CP were exploited for their potential to drive vascular lineage commitment of human PSCs. In addition to the listed inhibitors we include SB216763 (SB) due to its structure similarity to CP (see FIG. 18). Pluripotent stem cells were (i) plated as single-cells on mTeSR1 medium supplemented with Y-27632 a Rho-kinase inhibitor (Watanabe et al., 2007); (ii) incubated in priming medium (N2B27 medium supplemented with a GSK303 inhibitor) and (iii) incubated in induction medium (StemPro SFM 34 medium supplemented with Vascular Endothelial Growth Factor (VEGF; Sumi et al., 2008)) as outlined above under 1 (i) and (ii).
# human PSCs = assay: Endothelial induction by GSK3 inhibitors, flow cytometric VE-Cadherin (CD144) expression on day 5; type: cell-based
# Description: as §1
# The Following GSK3 Inhibitors were Used: CHIR99021 GSK3-Inhibitor: Catalogue Number: 361559 from Merck Millipore SB216763 GSK3-Inhibitor: Catalogue Number: 361566 from Merck Millipore BIO GSK3-Inhibitor: Catalogue Number: 3 361550 from Merck Millipore CP21R7: 3-(3-Amino-phenyl)-4-(1-methyl-1H-indol-3-yl)-pyrrole-2,5-dione (also referred to as “compound 21” herein; see e.g. L. Gong et al; Bioorganic & Medicinal Chemistry Letters 20 (2010), 1693-1696).
# Proliferation into vascular bed cells was detected on Day 5. Vascular identity is confirmed by the expression of vascular endothelial-cadherin (VE-Cadherin). The capability to induce vascular bed cells was determined by VE-Cadherin (CD144) expression on day 5 (FIG. 19). […] Remarkably, up to 35% of cells expressed CD144 at an optimal concentration of 1 μM from day five on. […] CHIR, which has a divergent chemical structure than CP induced CD144 expression also in a parabolic curve reaching an optimum at 6 μM. […] Although, SB and CP share the same chemical backbone, divergent moieties may influence the chemical properties, e.g. cellular permeability or solubility. In carrier treated cells no VE-CADHERIN expression was detected (FIG. 19).
# [2] = test system: Human Embryonic Stem cells; assay: Quantification of CD144+ stem cell-derived endothelial cells by image based high content analysis
# Description: FIG. 2A: Quantification CD144+ Stem Cell-Derived Endothelial Cells by image based high content analysis (HCA). Human Embryonic Stem cells have been differentiated in monolayer conditions with different small molecules. Upper and middle panel: Day 1 priming medium with different compounds; Day 4 induction medium+VEGF-A 50 ng/ml. Carrier N2B27 alone (upper panel, left); Wnt3a 150 ng/ml added to the priming medium (upper panel, right); SB216763 6 μM added to the priming medium (middle panel, left), CHIR 9902 2 μM added to the priming medium (middle panel, right). Lower panels: Day 1 priming medium with 2 μM Compound 21 (CP21R7); Day 4 induction medium+VEGF-A 50 ng/ml (lower panel, left) and Day 4 induction medium+VEGF-A 50 ng/ml+Forskolin 5 μM (lower panel, right). DAPI (cell nuclei) CD144 (membrane staining).
# FIG. 2B: Quantification graph: Percent CD144+ positive cells.
# (§2) Before the enzymatic dissociation of hPSC colonies using StemPro Accutase (Invitrogen) cells are preincubated for one hour with 10 μM ROCK-Inhibitor Y27632. 35.000 single hPSCs per cm^2 are plated onto growth factor reduced Matrigel (BD bioscience) coated cell culture plates in TeSR2 medium supplemented with 10 μM ROCK-Inhibitor. On day1 attachment medium is exchanged to N2B27 (Gibco) medium supplemented with (a) 2 μM Compound 21 (CP21R7) or (b) 1 μM Compound 21 (CP21R7) and 25 ng/ml BMP4 (R&D Systems). Cells are cultivated for additional 3 days without media change.
# (§3) On day 4 priming medium is replaced with StemPro-34 SFM medium (Invitrogen) supplemented with (a) 50 ng/ml VEGF and 5 μM Forskolin or (b) 200 ng/ml VEGF and 2 μM Forskolin. On day 5 induction medium is withdrawn and cells are used for MACS separation of CD144+ cells.
# PSCs [3] = assay: Genome-wide gene expression analysis during differentiation; type: cell-based, human
# pluripotent stem cells [4] = assay: VSMC induction, flow cytometric CD31/CD140b distribution; type: cell-based, human; conditions: induction medium replaced by RPMI medium with 0.5 μM IWR
# Source text: Cell types differed by morphology as well as by marker expression. Cobblestone-like cells with tight cell-cell contacts expressed the endothelial-specific marker VE-Cadherin. Flattened and spindle-like shaped cells stained positive for Smooth Muscle Actin (αSMA), indicating a vascular smooth muscle cell (VSMC) identity. In flow cytometric analysis cells separated into a major fraction of CD31^+/CD140^+ cells and minor fraction of CD31^−/CD140b^+ cells (FIG. 10).
# Unmodified PA-1 cells = assay: Cellular viability via ATP levels in unmodified PA-1 cells; type: cell-based, human
# Description: as §1
# hESCs = assay: Direct comparison BIO versus CP21R7 to differentiate hESCs into CD144+ endothelial cells; type: cell-based, human
# Description: FIG. 6: Direct comparison BIO versus CP21R7 to differentiate hESCs into endothelial cells CD144+. hESCs have been differentiated in monolayer conditions in parallel using different concentrations at Day 1 (0 μM, 0.5 μM, 1 μM, 2 μM) for the BIO or for the COMPOUND 21 (CP21R7) as supplement to the carrier medium N2B27, followed at Day 4 with induction medium VEGF-A 50 ng/ml and Forskolin 5 μM for all the conditions.
# The method of Tatsumi et al employs the BIO inhibitor at different concentrations as supplement to the N2B27. Although Tatsumi et al. describes that the pluripotent stem cells were differentiated to endothelial cells with about 20% efficiency (determined by endothelial cells expressing the surface marker CD144), we were not able to reproduce such results.
# pluripotent stem cells [5] = assay: Flow cytometry of CD144+ endothelial cells after monolayer differentiation; type: cell-based, human
# Description: FIG. 3: Flow Cytometry analysis of the pluripotent stem cell-derived CD144+ endothelial cells. Endothelial cells differentiated in monolayer conditions (priming medium 2 μM CP21R7, induction medium VEGF-A 50 ng/ml and Forskolin 5 μM) were analyzed before and after MACS sorting for the CD144+ expression. Before MACS Sorting 32.5% CD144+ endothelial cells and after MACS sorting 96.5% CD144+ endothelial cells.
# as §2, §3
# [6] = test system: GLI-luciferase responsive reporter PA-1 cells; assay: GLI-luciferase responsive reporter PA-1 cells counter screen (general transcriptional activity); type: cell-based, human
# Description: as §1
# PSCs [7] = assay: Immunostainings of differentiation markers over time; type: cell-based, human
# Source text: Immunostainings of SOX17, OCT4, T-BRACHYURY, PECAM-1 and VE-CADHERIN support the transcriptome data (Quantification shown in FIG. 9). The protein expression of the pan-mesodermal marker T-BRACHYURY confirms an intermediate PS-like cell stage. […] The vast majority of cells reached a T-BRACHYURY peak expression on day three. On day four the expression diminished and disappeared, thereby mimicking its specific embryonic expression pattern (Tam and Loebel, 2007). Loss of pluripotency was monitored by the time-dependent decline of OCT4 expression. […] Induction of endothelial cell identity was determined by the co-expression of platelet-endothelial cell adhesion molecule-1 (PECAM1) and VE-CADHERIN. Endothelial marker expression was detected upon administration of VEGF on day 4 (FIG. 9). […] Our differentiation system enables high throughput derivation of endothelial cells within 5 days through a transient emergence of primitive streak cells.
# SC-derived ECs = assay: Tube formation assay of SC-derived ECs on Matrigel matrix; type: cell-based, human; conditions: data not shown
# Description: In order to define the endothelial phenotype more profoundly, the angiogenic potential, the ability to uptake DiI-acetylated low-density lipoprotein (DiI-ac-LDL) was assessed and the dynamic modulation of the barrier function was monitored. For tube formation assays SC-derived ECs were seeded onto a Matrigel matrix.
# [8] = test system: human embryonic stem cell; conditions: 5 μM 3 days, then VEGF 2 days; Tatsumi et al.; cited from earlier work
molecule,measurement,setting,value
"Cn1cc(C2=C(c3ccc(Cl)cc3Cl)C(=O)NC2=O)c2ccccc21 [SB216763, 3-(2,4-Dichlorophenyl)-4-(1-methyl-1H-indol-3-yl)-1H-pyrrole-2,5-dione, reference compound]",TCF/LEF luciferase expression,[1]; concentration dependent administration,negligible
same,CD144 expression,"human PSCs; day 5, flow cytometry",no CD144 expression was observed
same,CD144+ cells,"[2]; 6 μM added to the priming medium, day 4 induction medium + VEGF-A 50 ng/ml",0.5%
VEGF,"upregulation of endothelial markers CD34, PECAM1, CDH5 and vWF","PSCs [3]; within the first 24 hours upon VEGF, data not shown",more than 100 fold
O=C(Nc1cccc2cccnc12)c1ccc(N2C(=O)[C@@H]3[C@H](C2=O)[C@@H]2C=C[C@H]3C2)cc1 [IWR],distribution of CD31+/CD140b− and CD31−/CD140b+ cells,pluripotent stem cells [4],inverted distribution
"Cn1cc(C2=C(c3cccc(N)c3)C(=O)NC2=O)c2ccccc21 [CP21R7, 3-(3-Amino-phenyl)-4-(1-methyl-1H-indol-3-yl)-pyrrole-2,5-dione]",cell proliferation,Unmodified PA-1 cells; at maximum luciferase activity,only a modest gain of cell proliferation
same,CD144 expression,"hESCs; dose response 0.5 μM, 1 μM, 2 μM, induction VEGF-A 50 ng/ml and Forskolin 5 μM",up to 35%
same,"CD144 expression, cells on day six","pluripotent stem cells [5]; priming 1 μM CP with 25 ng/ml BMP4, induction 200 ng/ml VEGF with 2 μM Forskolin",up to 85%
same,CD144+ endothelial cells before MACS sorting,"pluripotent stem cells [5]; priming medium 2 μM CP21R7, induction medium VEGF-A 50 ng/ml and Forskolin 5 μM",32.5%
same,general transcriptional activity,[6],minor increases of general transcriptional activity
same,maximum increased luciferase activity,[1]; at 3 μM,566 fold
same,concentration of highest luciferase activity,[1]; bell-shaped curve,3 µM
same,dose-response activation curve,[1],steep activation curve
same,optimal concentration for CD144 expression,"human PSCs; bell-shaped / parabolic curve, day 5",1 µM
same,cells expressed CD144,"human PSCs; optimal concentration of 1 μM, from day five on",up to 35%
same,"mesoderm markers MIXL1, T/BRACHYURY, FGF4 and EOMES",PSCs [3]; 24 hours upon combined CP and BMP4 treatment,Upregulation
same,"pluripotency markers NANOG, UIF1 and SOX2","PSCs [3]; 24 hours upon combined CP and BMP4 treatment, data not shown",downregulated
same,SOX17+ cells,"PSCs [7]; CP21 alone, day three",salt and pepper staining pattern of SOX17^+ cells
same,SOX17+ cells,PSCs [7]; combined application of CP and BMP4,prevented the appearance of endodermal SOX17^+ cells
same,T-BRACHYURY expression,PSCs [7]; treatment with CP and BMP4,induced T-BRACHYURY expression quickly after one day
same,CD144+ cells,"[2]; 2 μM added to the priming medium, day 4 induction medium + VEGF-A 50 ng/ml",40.2%
same,CD144+ cells,"[2]; 2 μM added to the priming medium, induction medium + VEGF-A 50 ng/ml + Forskolin 5 μM",54.6%
C[S+]([O-])CCCCN=C=S (centres unmarked) [Sulforaphane],"tube formation, number of nodes, length of tubes",SC-derived ECs,perturbed tube formation and reduced the number of nodes as well as the length of tubes
"O=C1Nc2cc(Br)ccc2/C1=C1/Nc2ccccc2/C1=N\O [BIO, (2′Z, 3′E)-6-bromoindirubin-3′-oxime]",toxicity,"Unmodified PA-1 cells; concentration of 10 μM, data not shown",highly toxic
same,efficiency determined by endothelial cells expressing the surface marker CD144,[8],about 20%
same,maximum expression of the CD144,"hESCs; 0.5 μM at Day 1 in N2B27, induction medium VEGF-A 50 ng/ml and Forskolin 5 μM",5%
same,cytotoxicity,hESCs; already at concentrations of 1 μM,strong cytotoxicity
same,toxicity to the cells,"hESCs; the other concentrations (1 μM, 2 μM)",toxic to the cells
same,GLI-mediated luciferase activity,[6]; data not shown,three-fold increase
same,dose-response activation curve,[1],steep activation curve
same,toxicity on single cells,human PSCs; data not shown,toxic on single cells
B1,CD144+ cells,"[2]; 150 ng/ml added to the priming medium, day 4 induction medium + VEGF-A 50 ng/ml",0.8%
